We go through six molecules from patent US8475814B2 (priority 2003, dated 2013).

SMILES strings stand for the structures.

The nature of data set [1]: Example 1: percutaneous [3H]-4-hydroxy tamoxifen delivery, radioactivity in breast tissue and blood of breast cancer patients. The format is in vivo, human.
Method: The patients received [^3H]-labeled drug applied directly on the affected breasts at specified intervals ranging from 12 hours to 7 days before surgery to excise diseased tissue. Breast tissue from three regions: the tumor, tissue immediately surrounding the tumor, and normal tissue, was excised and immediately frozen in liquid nitrogen. Additionally, plasma and urine samples were obtained at scheduled intervals and frozen until analysis.
Data set [2] can be described thus: Example 3: plasma pharmacokinetics of 4-hydroxy tamoxifen gel in healthy premenopausal women. The format is in vivo, human. As to conditions: for t1/2 (Range): 57 mg/100 g gel, last administration.
Method: Each participant applied the gel daily for the duration of two menstrual cycles.
At the end of a menstrual cycle, each patient received a single dose, after which serial blood samples were collected at 0, 0.5, 1, 1.5, 2, 3, 4, 6, 12, 18, 24, 36, 48, and 72 hours.
On the first day of the following menstruation, treatment, which consisted of daily application of the gel over two menstrual cycles, began. Blood samples were collected 24 hours following the morning application of gel on days 7, 20 and 25 of the first and second cycles. On the last day of administration, day 25 of the second menstrual cycle, serial blood samples were collected prior to application and at 0.5, 1, 1.5, 2, 3, 4, 6, 12, 18, 24, 36, 48, and 72 hours after application of the gel.
Data set [3] in a line: Example 4: 4-OHT assay in plasma, tumor tissue and normal tissue (GC-MS NICI). The format is in vivo, human. As to conditions: 2-3 weeks. The source says:
Patients were scheduled for tumor resection surgery with curative intent between day 15 and day 22 after the start of treatment. On the day prior to surgery, a blood sample was also obtained for determination of 4-OHT concentrations. On the day of surgery, patients were reassessed for concomitant therapy, concomitant conditions, hematology, biochemistry, plasma 4-OHT, estrone (E1), and estradiol (E2) concentrations.
Concentrations of 4-OHT in plasma, tumor tissue, and normal tissue were performed using Gas Chromatography (GC) combined with Mass Spectrometry (MS) used in the Negative Ion Chemical Ionization-mode (NICI) (Girault, 1993). The quantification limits of the method were 5 pg/ml for the plasma and 50 pg/g for tissue samples respectively. Tumor extracts and normal breast tissue obtained at the time of surgery (after treatment) were stored in liquid nitrogen until subsequent assay of 4-OHT.

For data set [4], the system named is Ki67 antigen (tumor tissue proliferation index). As to the kind of experiment: Example 4: Ki67 labeling index in breast tumor tissue. The format is in vivo, human. The note with it: for mean Ki-67 LI scores after treatment compared to the untreated group: adjusted for baseline, P=0.0054.
From the text: Participants in the study were postmenopausal women diagnosed with estrogen receptor positive invasive breast cancer, as determined by Trucut biopsy. Criteria for enrollment included age >50 years, histologically confirmed T1 or T2 estrogen receptor positive primary breast cancer, and fit for surgery within 1 month of the biopsy. Patients with inflammatory cancer, known metastasis or lymph node involvement were excluded as were patients with previous radiotherapy or chemotherapy and ongoing hormone replacement therapy (a minimum washout period of 8 days was observed before the Tru-cut biopsy). Other exclusion criteria were a history of thrombophlebitis requiring anticoagulant treatment, retinopathy, cutaneous allergy to alcohol or mammary dermatitis contraindicating the application of a gel.
Patients were scheduled for tumor resection surgery with curative intent between day 15 and day 22 after the start of treatment. On the day prior to surgery, a blood sample was also obtained for determination of 4-OHT concentrations. […]
Ki67 and Proliferating Cell Nuclear Antigen (PCNA) labeling indices (LI) were assessed on paraffin embedded sections of the pre- and post-treatment tissue specimens. The Ki67 antigen was assessed using the monoclonal antibody MIB 1 (DAKO, Denmark) as used in routine conditions in pathology. […] Six serial sections were analyzed per case in order to standardize sampling. […] For each preparation, optical density (OD) thresholds were determined using real microscopic images of the analyzed field as reference. […] Twenty fields were analyzed for each section. Stained nuclear surface was determined (segmentation and thresholding) and a LI scored (stained cells/counterstained elements). […] Control of immunostaining quantitative analysis and reproducibility of the procedure were performed: —by comparison to iterative measurements done on the same preparations, —by comparison to measurements compiled on six sequential sections of the same specimen. […] Results were expressed as LI.
The next data set has as its target T1, estrone sulphatase (Homo sapiens, UniProt P08842).
T1 construct: estrone sulphatase activity in mammary cancer cell lines
T1 sequence (P08842 22-583): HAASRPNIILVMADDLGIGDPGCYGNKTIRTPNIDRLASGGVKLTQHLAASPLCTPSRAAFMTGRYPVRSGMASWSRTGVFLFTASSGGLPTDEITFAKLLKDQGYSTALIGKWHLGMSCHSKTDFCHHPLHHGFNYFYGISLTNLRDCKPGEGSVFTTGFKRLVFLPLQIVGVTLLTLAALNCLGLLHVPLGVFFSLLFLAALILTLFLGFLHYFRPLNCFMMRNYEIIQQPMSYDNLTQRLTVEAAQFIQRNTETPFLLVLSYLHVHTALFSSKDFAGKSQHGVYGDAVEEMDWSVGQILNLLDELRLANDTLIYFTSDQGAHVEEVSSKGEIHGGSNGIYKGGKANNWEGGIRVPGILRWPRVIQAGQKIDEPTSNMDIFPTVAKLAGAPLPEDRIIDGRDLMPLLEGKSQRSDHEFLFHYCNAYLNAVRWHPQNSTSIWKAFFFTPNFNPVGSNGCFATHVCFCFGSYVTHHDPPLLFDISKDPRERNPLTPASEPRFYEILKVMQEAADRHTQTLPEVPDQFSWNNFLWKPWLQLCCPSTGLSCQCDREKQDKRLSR
As to conditions: mammary cancer cell lines; cited from earlier work.

For a further data set, the system named is estrogen receptors. As to conditions: in vitro; cited from earlier work.
Data set [5] deals with p53(−) normal human mammary epithelial cells. The note with it: cited from earlier work.
For data set [6] the following is noted: cited from earlier work.
Setting [7] is: 12 hr after percutaneous Z-[3H]-4-hydroxy tamoxifen.
The mark [8] stands for this setting: 24 hours after percutaneous [3H]-4-hydroxy tamoxifen.
The mark [9] stands for this setting: 24 hr after percutaneous Z-[3H]-4-hydroxy tamoxifen.
[10] abbreviates: 36 hr after percutaneous Z-[3H]-4-hydroxy tamoxifen.
[11] abbreviates: Day 4 after percutaneous Z-[3H]-4-hydroxy tamoxifen.
The mark [12] stands for this setting: Day 7 after percutaneous Z-[3H]-4-hydroxy tamoxifen.

For the molecule `CCC(=C(c1ccc(O)cc1)c1ccc(OCCN(C)C)cc1)c1ccccc1` (single isomer, unassigned) [E isomer], the “% Metabolites in Breast Tissue” value in data set [1] (human, in vivo) is reported as 33%.
Consider `CCC(=C(c1ccc(O)cc1)c1ccc(OCCN(C)C)cc1)c1ccccc1` [4-hydroxy tamoxifen, 1-[4-(2-N-dimethylaminoethoxy)phenyl]-1-(4-hydroxyphenyl)-2-phenylbut-1-ene], for which the “t1/2 (Range)” value in data set [2] (1 mg/day) is listed as “(58-118) hr”; in data set [2] (2 mg/day), “(49-101) hr”. Besides, in data set [2] (72 hours after the last gel application), the “plasma concentrations after the last gel application” value was “remained detectable”. In data set [2] (single 0.5 mg dose), the “plasma concentrations of 4-hydroxy tamoxifen after a single dose” value is reported as “did not produce detectable plasma concentrations”. Further, the “patients with detectable plasma concentrations (>5 pg/mL)” value in data set [2] (single dose of 1 mg) was 6 of 12. Moreover, in data set [2] (topical application, 0.5-2 mg/day), the “plasma concentrations of 4-hydroxy tamoxifen versus typical estradiol concentrations” value was less than 0.08 ng/mL. In addition, the “4-OHT concentration in Tumor, Median (min:max)” value in data set [3] (gel 0.5 mg/d) is given as 687 pg/g; in data set [3] (gel 1.0 mg/d) it was 1377 pg/g; in data set [3] (gel 2.0 mg/d), 1698 pg/g. For the same molecule, the “dose dependence of mean Ki-67 LI score after treatment” value in data set [4] (0.5, 1.0, 2.0 mg/d) is on record as “dose-dependent”. The “mean Ki-67 LI scores after treatment compared to the untreated group” value in data set [4] is listed as “significantly lower”. In addition, the “effect on estrone sulphatase activity” value at estrone sulphatase was “significant inhibitory effect”. Besides, the “% of radioactivity in blood” value in data set [1] (human, in vivo) came out at 68%. In addition, the “radioactivity administered that showed in the blood” value in data set [1] (human, in vivo) was determined as 0.5%. In data set [1] (human, in vivo), the “retention in the breast” value is reported as “approximately 4 days”. Further, the “time of plateau of radioactivity in blood” value in data set [1] (human, in vivo) is recorded as 4 to 6 days. Also, in the data set on estrogen receptors, the “potency as measured by binding affinity to estrogen receptors, compared with tamoxifen” value is “more potency than tamoxifen”.
For `CCC(=C(c1ccc(O)cc1)c1ccc(O)cc1)c1ccccc1` [Bisphenol], the “% Metabolites in Breast Tissue” value in data set [1] (setting [7]) came out at 1%; in data set [1] (setting [9]), 2%; in data set [1] (setting [10]) it was 3%; in data set [1] (setting [11]) it was 8%; in data set [1] (setting [12]), 8%. The “% of radioactivity in blood” value in data set [1] (setting [8]) was determined as 11%.
Turning to `CCC(=C(c1ccc(O)cc1)c1ccc(OCCNC)cc1)c1ccccc1` [N-Desmethyl-4-Hydroxy Tamoxifen], the “% Metabolites in Breast Tissue” value in data set [1] (setting [7]) came out at 2%; in data set [1] (setting [9]) it was 4%; in data set [1] (setting [10]), 14%; in data set [1] (setting [11]), 20%; in data set [1] (setting [12]), 16%. Also, the “% of radioactivity in blood” value in data set [1] (setting [8]) stood at 18%.
As to `CC/C(=C(\c1ccc(O)cc1)c1ccc(OCCN(C)C)cc1)c1ccccc1` [Z-4-hydroxy tamoxifen], in data set [1] (human, in vivo), the “% Metabolites in Breast Tissue” value was determined as 32%.
As to `CC/C(=C(\c1ccccc1)c1ccc(OCCN(C)C)cc1)c1ccccc1` [tamoxifen, reference compound], the “mean Ki-67 LI scores after treatment compared to the untreated group” value in data set [4] is listed as “significantly lower”. For the same molecule, the “effect on estrone sulphatase activity” value at estrone sulphatase is recorded as “little or no effect”. In addition, the entries for the “% Metabolites in Breast Tissue” value in data set [1] (setting [11]) and in data set [1] (setting [12]) were less than 1% and 2%, respectively. Also, the “time of plateau of radioactivity in blood” value in data set [1] (percutaneous application) came to 2 days. Further, the “retention in the breast” value in data set [1] (percutaneous application to the affected breast) was “shorter and far weaker”. In addition, the initiation of apoptosis entry in data set [5] is recorded as “initiates apoptosis”. Moreover, the rat liver carcinogenicity result in data set [6] is “potent rat liver carcinogen”.
